Assay: CKC/oligonucleotide complex formation, observation of precipitation
Format: physicochemical
Conditions: SEQ ID No. 2 solution 10 μM
Excerpt: CKC/Oligonucleotides complexes are formed due to the interaction of the CKC positive charges with the oligonucleotides negative charges conferred by each of the bases (18 in the case of SEQ ID No.2). The complex formation has the effect of neutralizing part of the negative charges of the oligonucleotides and to bring some lipophilic moieties to the complex. A stable complex with a balanced lipophilicity enhances the oligonucleotide penetration in the cells due to the affinity with the lipophilic cell membranes.
Stable complexes are formed without precipitation at ratios below 10/18 (CKC/oligonucleotide negative charges, the few lipophilic moieties being unable to induce the precipitation.

## SEQ ID No. 2: 18 mer-phosphorotioate oligonucleotide, 5′-3′ sequence ACT CAT ATT CAT AGG GTG (DNA ACTCATATTCATAGGGTG; all phosphorothioate, sugars by position and methylation of C not given here; further chemistry not fully specified)
Ratio CKC/negative charges 0.05, CKC 10 μM
  Observation (precipitation): No precipitation
Ratio CKC/negative charges 0.27, CKC 50 μM
  Observation (precipitation): No precipitation
Ratio CKC/negative charges 0.55, CKC 100 μM
  Observation (precipitation): No precipitation
Ratio CKC/negative charges 0.83, CKC 150 μM
  Observation (precipitation): ↓
Ratio CKC/negative charges 1.11, CKC 200 μM
  Observation (precipitation): ↓
Ratio CKC/negative charges 1.66, CKC 300 μM
  Observation (precipitation): ↓
Ratio CKC/negative charges 2.22, CKC 400 μM
  Observation (precipitation): ↓
Ratio CKC/negative charges 2.77, CKC 500 μM
  Observation (precipitation): ↓
Ratio CKC/negative charges 4.17, CKC 750 μM
  Observation (precipitation): ↓↓
Ratio CKC/negative charges 5.55, CKC 1000 μM
  Observation (precipitation): ↓↓↓
Ratio CKC/negative charges 55.55, CKC 10000 μM
  Observation (precipitation): ↓↓↓

Reference: patent US7834172B2, “Composition comprising at least one nucleosidic moiety as a therapeutic agent, and CKC” (Novagali Pharma SA, priority 2007, dated 2010)
